Results published in BigSolDB 2.1.

Q: For Cl.c1ccc([C@H]2CN3CCSC3=N2)cc1, which solubility (mole fraction) (in DMSO, 293.15 K) is on record?
A: 0.0117

Q: What about the solubility (mole fraction) (in DMSO, 298.15 K) of the same compound?
A: 0.0129

Q: What about the solubility (mole fraction) (in DMSO, 303.15 K) of the same compound?
A: 0.014

Q: And the solubility (mole fraction) (in DMSO, 308.15 K)?
A: 0.0157

Q: And the solubility (mole fraction) (in DMSO, 313.15 K)?
A: 0.0173

Q: And the solubility (mole fraction) (in DMSO, 318.15 K)?
A: 0.0193

Q: What about the solubility (mole fraction) (in DMSO, 323.15 K) of the same compound?
A: 0.0218

Q: What about the solubility (mole fraction) (in DMSO, 328.15 K) of the same compound?
A: 0.0237

Q: And the solubility (mole fraction) (in DMSO, 333.15 K)?
A: 0.0265

Q: What about the solubility (mole fraction) (in ethanol, 283.15 K) of the same compound?
A: 0.00753

Q: And the solubility (mole fraction) (in ethanol, 288.15 K)?
A: 0.00881

Q: What about the solubility (mole fraction) (in ethanol, 293.15 K) of the same compound?
A: 0.0101

Q: What about the solubility (mole fraction) (in ethanol, 298.15 K) of the same compound?
A: 0.0119

Q: What about the solubility (mole fraction) (in ethanol, 303.15 K) of the same compound?
A: 0.0153

Q: What about the solubility (mole fraction) (in ethanol, 308.15 K) of the same compound?
A: 0.0178

Q: What about the solubility (mole fraction) (in ethanol, 313.15 K) of the same compound?
A: 0.0201

Q: What about the solubility (mole fraction) (in ethanol, 318.15 K) of the same compound?
A: 0.0244

Q: What about the solubility (mole fraction) (in ethanol, 323.15 K) of the same compound?
A: 0.0289

Q: And the solubility (mole fraction) (in isobutanol, 283.15 K)?
A: 0.000869

Q: And the solubility (mole fraction) (in isobutanol, 288.15 K)?
A: 0.00131

Q: What about the solubility (mole fraction) (in isobutanol, 293.15 K) of the same compound?
A: 0.00182

Q: And the solubility (mole fraction) (in isobutanol, 298.15 K)?
A: 0.00247

Q: What about the solubility (mole fraction) (in isobutanol, 303.15 K) of the same compound?
A: 0.00334

Q: What about the solubility (mole fraction) (in isobutanol, 308.15 K) of the same compound?
A: 0.00447

Q: What about the solubility (mole fraction) (in isobutanol, 313.15 K) of the same compound?
A: 0.00577

Q: What about the solubility (mole fraction) (in isobutanol, 318.15 K) of the same compound?
A: 0.00747

Q: What about the solubility (mole fraction) (in isobutanol, 323.15 K) of the same compound?
A: 0.00937

Q: And the solubility (mole fraction) (in isopentanol, 283.15 K)?
A: 0.00108

Q: And the solubility (mole fraction) (in isopentanol, 288.15 K)?
A: 0.00134

Q: And the solubility (mole fraction) (in isopentanol, 293.15 K)?
A: 0.00182

Q: What about the solubility (mole fraction) (in isopentanol, 298.15 K) of the same compound?
A: 0.00234

Q: What about the solubility (mole fraction) (in isopentanol, 303.15 K) of the same compound?
A: 0.00287

Q: What about the solubility (mole fraction) (in isopentanol, 308.15 K) of the same compound?
A: 0.00402

Q: What about the solubility (mole fraction) (in isopentanol, 313.15 K) of the same compound?
A: 0.00542

Q: What about the solubility (mole fraction) (in isopentanol, 318.15 K) of the same compound?
A: 0.00676

Q: What about the solubility (mole fraction) (in isopentanol, 323.15 K) of the same compound?
A: 0.00873

Q: And the solubility (mole fraction) (in isopropanol, 283.15 K)?
A: 0.000856

Q: And the solubility (mole fraction) (in isopropanol, 288.15 K)?
A: 0.00104

Q: What about the solubility (mole fraction) (in isopropanol, 293.15 K) of the same compound?
A: 0.00138

Q: And the solubility (mole fraction) (in isopropanol, 298.15 K)?
A: 0.00179

Q: And the solubility (mole fraction) (in isopropanol, 303.15 K)?
A: 0.00225

Q: What about the solubility (mole fraction) (in isopropanol, 308.15 K) of the same compound?
A: 0.00275

Q: What about the solubility (mole fraction) (in isopropanol, 313.15 K) of the same compound?
A: 0.00319

Q: What about the solubility (mole fraction) (in isopropanol, 318.15 K) of the same compound?
A: 0.00401

Q: And the solubility (mole fraction) (in isopropanol, 323.15 K)?
A: 0.00475

Q: What about the solubility (mole fraction) (in methanol, 283.15 K) of the same compound?
A: 0.0298

Q: And the solubility (mole fraction) (in methanol, 288.15 K)?
A: 0.0357

Q: What about the solubility (mole fraction) (in methanol, 293.15 K) of the same compound?
A: 0.0429

Q: What about the solubility (mole fraction) (in methanol, 298.15 K) of the same compound?
A: 0.0513

Q: What about the solubility (mole fraction) (in methanol, 303.15 K) of the same compound?
A: 0.0595

Q: What about the solubility (mole fraction) (in methanol, 308.15 K) of the same compound?
A: 0.0696

Q: What about the solubility (mole fraction) (in methanol, 313.15 K) of the same compound?
A: 0.0816

Q: What about the solubility (mole fraction) (in methanol, 318.15 K) of the same compound?
A: 0.0955

Q: And the solubility (mole fraction) (in methanol, 323.15 K)?
A: 0.109

Q: What about the solubility (mole fraction) (in n-butanol, 283.15 K) of the same compound?
A: 0.00182

Q: What about the solubility (mole fraction) (in n-butanol, 288.15 K) of the same compound?
A: 0.00236

Q: What about the solubility (mole fraction) (in n-butanol, 293.15 K) of the same compound?
A: 0.00311

Q: And the solubility (mole fraction) (in n-butanol, 298.15 K)?
A: 0.00407

Q: What about the solubility (mole fraction) (in n-butanol, 303.15 K) of the same compound?
A: 0.00542

Q: What about the solubility (mole fraction) (in n-butanol, 308.15 K) of the same compound?
A: 0.00699

Q: What about the solubility (mole fraction) (in n-butanol, 313.15 K) of the same compound?
A: 0.00888

Q: And the solubility (mole fraction) (in n-butanol, 318.15 K)?
A: 0.0111

Q: What about the solubility (mole fraction) (in n-butanol, 323.15 K) of the same compound?
A: 0.0139

Q: And the solubility (mole fraction) (in n-hexanol, 283.15 K)?
A: 0.000727

Q: What about the solubility (mole fraction) (in n-hexanol, 288.15 K) of the same compound?
A: 0.000986

Q: And the solubility (mole fraction) (in n-hexanol, 293.15 K)?
A: 0.00136

Q: And the solubility (mole fraction) (in n-hexanol, 298.15 K)?
A: 0.00198

Q: What about the solubility (mole fraction) (in n-hexanol, 303.15 K) of the same compound?
A: 0.00226

Q: What about the solubility (mole fraction) (in n-hexanol, 308.15 K) of the same compound?
A: 0.00283

Q: What about the solubility (mole fraction) (in n-hexanol, 313.15 K) of the same compound?
A: 0.0035

Q: And the solubility (mole fraction) (in n-hexanol, 318.15 K)?
A: 0.00437

Q: What about the solubility (mole fraction) (in n-hexanol, 323.15 K) of the same compound?
A: 0.00524

Q: And the solubility (mole fraction) (in n-pentanol, 283.15 K)?
A: 0.000747

Q: And the solubility (mole fraction) (in n-pentanol, 288.15 K)?
A: 0.00112

Q: And the solubility (mole fraction) (in n-pentanol, 293.15 K)?
A: 0.00161

Q: What about the solubility (mole fraction) (in n-pentanol, 298.15 K) of the same compound?
A: 0.00209

Q: And the solubility (mole fraction) (in n-pentanol, 303.15 K)?
A: 0.00293

Q: What about the solubility (mole fraction) (in n-pentanol, 308.15 K) of the same compound?
A: 0.00377

Q: And the solubility (mole fraction) (in n-pentanol, 313.15 K)?
A: 0.00471

Q: And the solubility (mole fraction) (in n-pentanol, 318.15 K)?
A: 0.00605

Q: And the solubility (mole fraction) (in n-pentanol, 323.15 K)?
A: 0.00745

Q: And the solubility (mole fraction) (in n-propanol, 283.15 K)?
A: 0.00412

Q: What about the solubility (mole fraction) (in n-propanol, 288.15 K) of the same compound?
A: 0.00492

Q: And the solubility (mole fraction) (in n-propanol, 293.15 K)?
A: 0.00631

Q: What about the solubility (mole fraction) (in n-propanol, 298.15 K) of the same compound?
A: 0.00751

Q: And the solubility (mole fraction) (in n-propanol, 303.15 K)?
A: 0.00903

Q: What about the solubility (mole fraction) (in n-propanol, 308.15 K) of the same compound?
A: 0.0109

Q: And the solubility (mole fraction) (in n-propanol, 313.15 K)?
A: 0.013

Q: What about the solubility (mole fraction) (in n-propanol, 318.15 K) of the same compound?
A: 0.0149

Q: What about the solubility (mole fraction) (in n-propanol, 323.15 K) of the same compound?
A: 0.0169

Q: What about the solubility (mole fraction) (in sec-butanol, 283.15 K) of the same compound?
A: 0.000587

Q: What about the solubility (mole fraction) (in sec-butanol, 288.15 K) of the same compound?
A: 0.000722

Q: What about the solubility (mole fraction) (in sec-butanol, 293.15 K) of the same compound?
A: 0.000867

Q: What about the solubility (mole fraction) (in sec-butanol, 298.15 K) of the same compound?
A: 0.00105

Q: And the solubility (mole fraction) (in sec-butanol, 303.15 K)?
A: 0.00123

Q: And the solubility (mole fraction) (in sec-butanol, 308.15 K)?
A: 0.00148

Q: What about the solubility (mole fraction) (in sec-butanol, 313.15 K) of the same compound?
A: 0.00177

Q: And the solubility (mole fraction) (in sec-butanol, 318.15 K)?
A: 0.00213

Q: What about the solubility (mole fraction) (in sec-butanol, 323.15 K) of the same compound?
A: 0.00252

Q: What about the solubility (mole fraction) (in water, 283.15 K) of the same compound?
A: 0.0664

Q: And the solubility (mole fraction) (in water, 285.65 K)?
A: 0.0718

Q: And the solubility (mole fraction) (in water, 288.15 K)?
A: 0.0769

Q: What about the solubility (mole fraction) (in water, 290.65 K) of the same compound?
A: 0.0825

Q: And the solubility (mole fraction) (in water, 293.15 K)?
A: 0.0879

Q: What about the solubility (mole fraction) (in water, 295.65 K) of the same compound?
A: 0.0943

Q: And the solubility (mole fraction) (in water, 298.15 K)?
A: 0.101

Q: And the solubility (mole fraction) (in water, 300.65 K)?
A: 0.106

Q: And the solubility (mole fraction) (in water, 303.15 K)?
A: 0.113

Q: What about the solubility (mole fraction) (in water, 305.65 K) of the same compound?
A: 0.12

Q: What about the solubility (mole fraction) (in water, 308.15 K) of the same compound?
A: 0.127
